The values below come from PubChem BioAssay AID1259407 (Chemical Carcinogenesis Research Information System (CCRIS), 2018).

Activity calls are given as the source filed them. How the calls were made is not given here.

The data set deals with CCRIS mutagenicity, Ames/micronucleus/aberration tests. As to the kind of experiment: CCRIS mutagenicity studies.
Setting [1] is: Test System: AMES SALMONELLA TYPHIMURIUM, Strain/Indicator: TA98, Metabolic Activation: NONE, Method: PREINCUBATION
Setting [2] is: Test System: AMES SALMONELLA TYPHIMURIUM, Strain/Indicator: TA100, Metabolic Activation: NONE, Method: PREINCUBATION
Where [3] appears, read: Test System: AMES SALMONELLA TYPHIMURIUM, Strain/Indicator: TA1535, Metabolic Activation: NONE, Method: PREINCUBATION
Setting [4] is: Test System: AMES SALMONELLA TYPHIMURIUM, Strain/Indicator: TA1537, Metabolic Activation: NONE, Method: PREINCUBATION

As for `O=C1C=CC(=O)c2ccccc21`, the mutagenic call reads like this: (End Point: In vitro chromosomal aberrations, Test System: Chinese hamster lung (CHL/IU) cells, Metabolic Activation: Rat, Liver, S9, Phenobarbital and 5,6-benzoflavone) “active; positive (structural changes). toxic at 0.014 mg/ml”; (Test System: AMES SALMONELLA TYPHIMURIUM, Strain/Indicator: TA97, Metabolic Activation: NONE, Method: PREINCUBATION) “inactive; negative”; (Test System: AMES SALMONELLA TYPHIMURIUM, Strain/Indicator: TA97, Metabolic Activation: NONE, Method: STANDARD PLATE) “inactive; negative”; (Test System: AMES SALMONELLA TYPHIMURIUM, Strain/Indicator: TA97, Metabolic Activation: RAT, LIVER, S-9, PCB, Method: STANDARD PLATE) “inactive; negative”; (Test System: AMES SALMONELLA TYPHIMURIUM, Strain/Indicator: TA97, Metabolic Activation: RAT, LIVER, S-9, PHENOBARBITAL AND 5,6-BENZOFLAVONE, Method: PREINCUBATION) “active; positive”; under setting [1], “inactive; negative”. Besides, the mutagenic call is “inactive; negative” (Test System: AMES SALMONELLA TYPHIMURIUM, Strain/Indicator: TA98, Metabolic Activation: NONE, Method: STANDARD PLATE); “inactive; negative” (Test System: AMES SALMONELLA TYPHIMURIUM, Strain/Indicator: TA98, Metabolic Activation: RAT, LIVER, S-9, PCB, Method: STANDARD PLATE); “inactive; negative” (Test System: AMES SALMONELLA TYPHIMURIUM, Strain/Indicator: TA98, Metabolic Activation: RAT, LIVER, S-9, PHENOBARBITAL AND 5,6-BENZOFLAVONE, Method: PREINCUBATION); “active; positive” under setting [2]; “inactive; negative” (Test System: AMES SALMONELLA TYPHIMURIUM, Strain/Indicator: TA100, Metabolic Activation: NONE, Method: STANDARD PLATE); “inactive; negative” (Test System: AMES SALMONELLA TYPHIMURIUM, Strain/Indicator: TA100, Metabolic Activation: RAT, LIVER, S-9, PCB, Method: STANDARD PLATE). For the same compound, the mutagenic call is, setting by setting: (Test System: AMES SALMONELLA TYPHIMURIUM, Strain/Indicator: TA100, Metabolic Activation: RAT, LIVER, S-9, PHENOBARBITAL AND 5,6-BENZOFLAVONE, Method: PREINCUBATION) “active; positive”; (Test System: AMES SALMONELLA TYPHIMURIUM, Strain/Indicator: TA102, Metabolic Activation: NONE, Method: PREINCUBATION) “inactive; negative”; (Test System: AMES SALMONELLA TYPHIMURIUM, Strain/Indicator: TA102, Metabolic Activation: RAT, LIVER, S-9, PHENOBARBITAL AND 5,6-BENZOFLAVONE, Method: PREINCUBATION) “active; positive”; (Test System: AMES SALMONELLA TYPHIMURIUM, Strain/Indicator: TA104, Metabolic Activation: NONE, Method: PREINCUBATION) “active; positive”; (Test System: AMES SALMONELLA TYPHIMURIUM, Strain/Indicator: TA104, Metabolic Activation: RAT, LIVER, S-9, PHENOBARBITAL AND 5,6-BENZOFLAVONE, Method: PREINCUBATION) “active; positive”; under setting [3], “inactive; negative”. For the same compound, the mutagenic call was “inactive; negative” (Test System: AMES SALMONELLA TYPHIMURIUM, Strain/Indicator: TA1535, Metabolic Activation: RAT, LIVER, S-9, PHENOBARBITAL AND 5,6-BENZOFLAVONE, Method: PREINCUBATION); “inactive; negative” under setting [4]; “inactive; negative” (Test System: AMES SALMONELLA TYPHIMURIUM, Strain/Indicator: TA1537, Metabolic Activation: RAT, LIVER, S-9, PHENOBARBITAL AND 5,6-BENZOFLAVONE, Method: PREINCUBATION); “inactive; negative” (Test System: AMES SALMONELLA TYPHIMURIUM, Strain/Indicator: TA1538, Metabolic Activation: NONE, Method: PREINCUBATION); “inactive; negative” (Test System: AMES SALMONELLA TYPHIMURIUM, Strain/Indicator: TA1538, Metabolic Activation: RAT, LIVER, S-9, PHENOBARBITAL AND 5,6-BENZOFLAVONE, Method: PREINCUBATION); “active; positive” (Test System: AMES SALMONELLA TYPHIMURIUM, Strain/Indicator: TA2637, Metabolic Activation: NONE, Method: PREINCUBATION). Besides, the mutagenic call was “active; positive” (Test System: AMES SALMONELLA TYPHIMURIUM, Strain/Indicator: TA2637, Metabolic Activation: RAT, LIVER, S-9, PHENOBARBITAL AND 5,6-BENZOFLAVONE, Method: PREINCUBATION); “inactive; negative” (Test System: Ames Salmonella typhimurium, Strain/Indicator: TA97, Metabolic Activation: None, Method: Preincubation); “inactive; negative” (Test System: Ames Salmonella typhimurium, Strain/Indicator: TA97, Metabolic Activation: Rat, Liver, S9, Aroclor 1254, Method: Preincubation); “inactive; negative” (Test System: Ames Salmonella typhimurium, Strain/Indicator: TA98, Metabolic Activation: None, Method: Preincubation); “inactive; negative” (Test System: Ames Salmonella typhimurium, Strain/Indicator: TA98, Metabolic Activation: Rat, Liver, S9, Aroclor 1254, Method: Preincubation); “inactive; negative” (Test System: Ames Salmonella typhimurium, Strain/Indicator: TA100, Metabolic Activation: None, Method: Preincubation). Besides, the mutagenic call is, setting by setting: (Test System: Ames Salmonella typhimurium, Strain/Indicator: TA100, Metabolic Activation: Rat, Liver, S9, Aroclor 1254, Method: Preincubation) “inactive; negative”; (Test System: Ames Salmonella typhimurium, Strain/Indicator: TA102, Metabolic Activation: None, Method: Preincubation) “inactive; negative”; (Test System: Ames Salmonella typhimurium, Strain/Indicator: TA102, Metabolic Activation: Rat, Liver, S9, Aroclor 1254, Method: Preincubation) “inactive; negative”.
In the case of `Nc1ccccc1SCCSc1ccccc1N`, the mutagenic call was “inactive; negative” (Test System: AMES SALMONELLA TYPHIMURIUM, Strain/Indicator: TA98, Metabolic Activation: RAT, LIVER, S-9, AROCLOR 1254, Method: STANDARD PLATE) and “active; positive” (Test System: AMES SALMONELLA TYPHIMURIUM, Strain/Indicator: TA100, Metabolic Activation: RAT, LIVER, S-9, AROCLOR 1254, Method: STANDARD PLATE).
Turning to `CC(C)(C)OC(=O)C=Cc1ccc([N+](=O)[O-])o1`, the mutagenic call under setting [1] is “active; positive”.
Regarding `CN(C)CCOC(C)(c1ccccc1)c1ccccn1` (stereo not drawn), the mutagenic call is “inactive; negative” (Test System: AMES SALMONELLA TYPHIMURIUM, Strain/Indicator: TA98, Metabolic Activation: HAMSTER, LIVER, S-9, AROCLOR 1254 (10%), Method: PREINCUBATION); “inactive; negative” under setting [1]; “inactive; negative” (Test System: AMES SALMONELLA TYPHIMURIUM, Strain/Indicator: TA98, Metabolic Activation: RAT, LIVER, S-9, AROCLOR 1254 (10%), Method: PREINCUBATION); “inactive; negative” (Test System: AMES SALMONELLA TYPHIMURIUM, Strain/Indicator: TA100, Metabolic Activation: HAMSTER, LIVER, S-9, AROCLOR 1254 (10%), Method: PREINCUBATION); “inactive; negative” under setting [2]; “inactive; negative” (Test System: AMES SALMONELLA TYPHIMURIUM, Strain/Indicator: TA100, Metabolic Activation: RAT, LIVER, S-9, AROCLOR 1254 (10%), Method: PREINCUBATION). Besides, the mutagenic call (Test System: AMES SALMONELLA TYPHIMURIUM, Strain/Indicator: TA1535, Metabolic Activation: HAMSTER, LIVER, S-9, AROCLOR 1254 (10%), Method: PREINCUBATION) is “inactive; negative”; the mutagenic call under setting [3] was “inactive; negative”; the mutagenic call (Test System: AMES SALMONELLA TYPHIMURIUM, Strain/Indicator: TA1535, Metabolic Activation: RAT, LIVER, S-9, AROCLOR 1254 (10%), Method: PREINCUBATION) is “inactive; negative”; the mutagenic call (Test System: AMES SALMONELLA TYPHIMURIUM, Strain/Indicator: TA1537, Metabolic Activation: HAMSTER, LIVER, S-9, AROCLOR 1254 (10%), Method: PREINCUBATION) was “inactive; negative”; the mutagenic call under setting [4] is “inactive; negative”; the mutagenic call (Test System: AMES SALMONELLA TYPHIMURIUM, Strain/Indicator: TA1537, Metabolic Activation: RAT, LIVER, S-9, AROCLOR 1254 (10%), Method: PREINCUBATION) was “inactive; negative”.
